Measurements as given in US20230111310A1, “CARBOXYLIC ACID DERIVATIVE-SUBSTITUTED IMINO ARYL COMPOUND, PREPARATION METHOD THEREFOR, HERBICIDAL COMPOSITION AND USE THEREOF” (Qingdao Kingagroot Chemical Compound Co., Ltd., priority 2020, published 2023).

Tests used:
Assay in all cases: Weeding effect in post-emergence stage
Type in all cases: in vivo
Abutilon theophrasti = settings: for Weeding effect in post-emergence stage, Abutilon theophrasti: level of fresh weight growth control rate; for Weeding effect in post-emergence stage, Abutilon theophrasti (level): fresh weight control rate level
Procedure, shortened: (§1)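 Compound, dissolved in acetone and diluted in water with Tween 80 plus methyl oleate EC (1.5 liter/ha), is sprayed onto 2-3 leaf potted plants. Rates span 7.5–500 g/ha. After 3 weeks of greenhouse culture, weeding effect is counted as the mean of triplicates.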

Alopecurus japonicus = settings: for Weeding effect in post-emergence stage, Alopecurus japonicus: level of fresh weight growth control rate; for Weeding effect in post-emergence stage, Alopecurus japonicus (level): fresh weight control rate level
Procedure, shortened: as §1

Digitaria sanguinalis = settings: for Weeding effect in post-emergence stage, Digitaria sanguinalis: level of fresh weight growth control rate; for Weeding effect in post-emergence stage, Digitaria sanguinalis (level): fresh weight control rate level
Procedure, shortened: as §1

Eleusine indica = settings: for Weeding effect in post-emergence stage, Eleusine indica: level of fresh weight growth control rate; for Weeding effect in post-emergence stage, Eleusine indica (level): fresh weight control rate level
Procedure, shortened: as §1

Setaria viridis = settings: for Weeding effect in post-emergence stage, Setaria viridis: level of fresh weight growth control rate; for Weeding effect in post-emergence stage, Setaria viridis (level): fresh weight control rate level
Procedure, shortened: as §1

Echinochloa crusgalli = settings: for Weeding effect in post-emergence stage, Echinochloa crusgalli: level of fresh weight growth control rate; for Weeding effect in post-emergence stage, Echinochloa crusgalli (level): fresh weight control rate level
Procedure, shortened: as §1

CC(O/N=C/c1cc(-n2c(=O)cc(C(F)(F)F)n(C)c2=O)c(F)cc1Cl)C(=O)OCc1ccncc1 (stereo not drawn) [Compound 303]
Weeding effect in post-emergence stage, Abutilon theophrasti (Abutilon theophrasti; Dose 15 g/ha): 5 (Level 5: growth control rate is above 85%) | Weeding effect in post-emergence stage, Alopecurus japonicus (Alopecurus japonicus; Dose 15 g/ha): 5 (Level 5: growth control rate is above 85%) | Weeding effect in post-emergence stage, Digitaria sanguinalis (Digitaria sanguinalis; Dose 15 g/ha): 5 (Level 5: growth control rate is above 85%) | Weeding effect in post-emergence stage, Eleusine indica (Eleusine indica; Dose 15 g/ha): 5 (Level 5: growth control rate is above 85%) | Weeding effect in post-emergence stage, Setaria viridis (Setaria viridis; Dose 15 g/ha): 5 (Level 5: growth control rate is above 85%) | Weeding effect in post-emergence stage, Echinochloa crusgalli (Echinochloa crusgalli; Dose 15 g/ha): 5 (Level 5: growth control rate is above 85%)

CC(C#N)OC(=O)C(C)O/N=C/c1cc(-n2c(=O)cc(C(F)(F)F)n(C)c2=O)c(F)cc1Cl (stereo not drawn) [Compound 443]
Weeding effect in post-emergence stage, Abutilon theophrasti (level) (Abutilon theophrasti; Dose 15 g/ha): 5 (Level 5: growth control rate is above 85%) | Weeding effect in post-emergence stage, Alopecurus japonicus (level) (Alopecurus japonicus; Dose 15 g/ha): 5 (Level 5: growth control rate is above 85%) | Weeding effect in post-emergence stage, Digitaria sanguinalis (level) (Digitaria sanguinalis; Dose 15 g/ha): 5 (Level 5: growth control rate is above 85%) | Weeding effect in post-emergence stage, Eleusine indica (level) (Eleusine indica; Dose 15 g/ha): 5 (Level 5: growth control rate is above 85%) | Weeding effect in post-emergence stage, Setaria viridis (level) (Setaria viridis; Dose 15 g/ha): 5 (Level 5: growth control rate is above 85%) | Weeding effect in post-emergence stage, Echinochloa crusgalli (level) (Echinochloa crusgalli; Dose 15 g/ha): 5 (Level 5: growth control rate is above 85%)

COCCOC(=O)C(C)O/N=C/c1cc(-n2c(=O)cc(C(F)(F)F)n(C)c2=O)c(F)cc1Cl (stereo not drawn) [Compound 230]
Weeding effect in post-emergence stage, Abutilon theophrasti (Abutilon theophrasti; Dose 15 g/ha): 5 (Level 5: growth control rate is above 85%) | Weeding effect in post-emergence stage, Alopecurus japonicus (Alopecurus japonicus; Dose 15 g/ha): 5 (Level 5: growth control rate is above 85%) | Weeding effect in post-emergence stage, Digitaria sanguinalis (Digitaria sanguinalis; Dose 15 g/ha): 5 (Level 5: growth control rate is above 85%) | Weeding effect in post-emergence stage, Eleusine indica (Eleusine indica; Dose 15 g/ha): 5 (Level 5: growth control rate is above 85%) | Weeding effect in post-emergence stage, Setaria viridis (Setaria viridis; Dose 15 g/ha): 5 (Level 5: growth control rate is above 85%) | Weeding effect in post-emergence stage, Echinochloa crusgalli (Echinochloa crusgalli; Dose 15 g/ha): 5 (Level 5: growth control rate is above 85%)

COC(=O)C(C)ON=Cc1nc(-n2c(=O)n(C)c(=S)n(C)c2=O)c(F)cc1Cl (stereo not drawn) [Compound 511]
Weeding effect in post-emergence stage, Abutilon theophrasti (level) (Abutilon theophrasti; Dose 15 g/ha): 5 (Level 5: growth control rate is above 85%) | Weeding effect in post-emergence stage, Alopecurus japonicus (level) (Alopecurus japonicus; Dose 15 g/ha): 5 (Level 5: growth control rate is above 85%) | Weeding effect in post-emergence stage, Digitaria sanguinalis (level) (Digitaria sanguinalis; Dose 15 g/ha): 5 (Level 5: growth control rate is above 85%) | Weeding effect in post-emergence stage, Eleusine indica (level) (Eleusine indica; Dose 15 g/ha): 5 (Level 5: growth control rate is above 85%) | Weeding effect in post-emergence stage, Setaria viridis (level) (Setaria viridis; Dose 15 g/ha): 5 (Level 5: growth control rate is above 85%) | Weeding effect in post-emergence stage, Echinochloa crusgalli (level) (Echinochloa crusgalli; Dose 15 g/ha): 5 (Level 5: growth control rate is above 85%)

CC(=NOC(=O)C(C)ON=Cc1cc(-n2c(=O)cc(C(F)(F)F)n(C)c2=O)c(F)cc1Cl)C1CC1 (stereo not drawn) [Compound 450]
Weeding effect in post-emergence stage, Abutilon theophrasti (level) (Abutilon theophrasti; Dose 15 g/ha): 5 (Level 5: growth control rate is above 85%) | Weeding effect in post-emergence stage, Alopecurus japonicus (level) (Alopecurus japonicus; Dose 15 g/ha): 5 (Level 5: growth control rate is above 85%) | Weeding effect in post-emergence stage, Digitaria sanguinalis (level) (Digitaria sanguinalis; Dose 15 g/ha): 5 (Level 5: growth control rate is above 85%) | Weeding effect in post-emergence stage, Eleusine indica (level) (Eleusine indica; Dose 15 g/ha): 5 (Level 5: growth control rate is above 85%) | Weeding effect in post-emergence stage, Setaria viridis (level) (Setaria viridis; Dose 15 g/ha): 5 (Level 5: growth control rate is above 85%) | Weeding effect in post-emergence stage, Echinochloa crusgalli (level) (Echinochloa crusgalli; Dose 15 g/ha): 5 (Level 5: growth control rate is above 85%)

CC(O/N=C/c1cc(-n2c(=O)cc(C(F)(F)F)n(C)c2=O)c(F)cc1Cl)C(=O)OCCCC#N (stereo not drawn) [Compound 446]
Weeding effect in post-emergence stage, Abutilon theophrasti (level) (Abutilon theophrasti; Dose 15 g/ha): 5 (Level 5: growth control rate is above 85%) | Weeding effect in post-emergence stage, Alopecurus japonicus (level) (Alopecurus japonicus; Dose 15 g/ha): 5 (Level 5: growth control rate is above 85%) | Weeding effect in post-emergence stage, Digitaria sanguinalis (level) (Digitaria sanguinalis; Dose 15 g/ha): 5 (Level 5: growth control rate is above 85%) | Weeding effect in post-emergence stage, Eleusine indica (level) (Eleusine indica; Dose 15 g/ha): 5 (Level 5: growth control rate is above 85%) | Weeding effect in post-emergence stage, Setaria viridis (level) (Setaria viridis; Dose 15 g/ha): 5 (Level 5: growth control rate is above 85%) | Weeding effect in post-emergence stage, Echinochloa crusgalli (level) (Echinochloa crusgalli; Dose 15 g/ha): 5 (Level 5: growth control rate is above 85%)

CCOC(=O)COC(=O)C(C)O/N=C/c1cc(-n2c(=O)n(C)c(=S)n(C)c2=O)c(F)cc1Cl (racemic) [Compound 17]
Weeding effect in post-emergence stage, Abutilon theophrasti (Abutilon theophrasti; Dose 15 g/ha): 5 (Level 5: growth control rate is above 85%) | Weeding effect in post-emergence stage, Alopecurus japonicus (Alopecurus japonicus; Dose 15 g/ha): 5 (Level 5: growth control rate is above 85%) | Weeding effect in post-emergence stage, Digitaria sanguinalis (Digitaria sanguinalis; Dose 15 g/ha): 5 (Level 5: growth control rate is above 85%) | Weeding effect in post-emergence stage, Eleusine indica (Eleusine indica; Dose 15 g/ha): 5 (Level 5: growth control rate is above 85%) | Weeding effect in post-emergence stage, Setaria viridis (Setaria viridis; Dose 15 g/ha): 5 (Level 5: growth control rate is above 85%) | Weeding effect in post-emergence stage, Echinochloa crusgalli (Echinochloa crusgalli; Dose 15 g/ha): 5 (Level 5: growth control rate is above 85%)

CCC(O/N=C/c1cc(-n2c(=O)n(C)c(=S)n(C)c2=O)c(F)cc1Cl)C(=O)OC (stereo not drawn) [Compound 72]
Weeding effect in post-emergence stage, Abutilon theophrasti (Abutilon theophrasti; Dose 15 g/ha): 5 (Level 5: growth control rate is above 85%) | Weeding effect in post-emergence stage, Alopecurus japonicus (Alopecurus japonicus; Dose 15 g/ha): 4 (Level 4: growth control rate is greater than or equal to 60% and less than 85%) | Weeding effect in post-emergence stage, Digitaria sanguinalis (Digitaria sanguinalis; Dose 15 g/ha): 5 (Level 5: growth control rate is above 85%) | Weeding effect in post-emergence stage, Eleusine indica (Eleusine indica; Dose 15 g/ha): 5 (Level 5: growth control rate is above 85%) | Weeding effect in post-emergence stage, Setaria viridis (Setaria viridis; Dose 15 g/ha): 5 (Level 5: growth control rate is above 85%) | Weeding effect in post-emergence stage, Echinochloa crusgalli (Echinochloa crusgalli; Dose 15 g/ha): 5 (Level 5: growth control rate is above 85%)

CC/C(C)=N/OC(=O)C(C)O/N=C/c1cc(-n2c(=O)cc(C(F)(F)F)n(C)c2=O)c(F)cc1Cl (stereo not drawn) [Compound 249]
Weeding effect in post-emergence stage, Abutilon theophrasti (Abutilon theophrasti; Dose 15 g/ha): 5 (Level 5: growth control rate is above 85%) | Weeding effect in post-emergence stage, Alopecurus japonicus (Alopecurus japonicus; Dose 15 g/ha): 5 (Level 5: growth control rate is above 85%) | Weeding effect in post-emergence stage, Digitaria sanguinalis (Digitaria sanguinalis; Dose 15 g/ha): 5 (Level 5: growth control rate is above 85%) | Weeding effect in post-emergence stage, Eleusine indica (Eleusine indica; Dose 15 g/ha): 5 (Level 5: growth control rate is above 85%) | Weeding effect in post-emergence stage, Setaria viridis (Setaria viridis; Dose 15 g/ha): 5 (Level 5: growth control rate is above 85%) | Weeding effect in post-emergence stage, Echinochloa crusgalli (Echinochloa crusgalli; Dose 15 g/ha): 5 (Level 5: growth control rate is above 85%)

C[C@@H](O/N=C/c1cc(-n2c(=O)cc(C(F)(F)F)n(C)c2=O)c(F)cc1Cl)C(=O)OCCN(C)C [448(R)]
Weeding effect in post-emergence stage, Abutilon theophrasti (level) (Abutilon theophrasti; Dose 15 g/ha): 5 (Level 5: growth control rate is above 85%) | Weeding effect in post-emergence stage, Alopecurus japonicus (level) (Alopecurus japonicus; Dose 15 g/ha): 5 (Level 5: growth control rate is above 85%) | Weeding effect in post-emergence stage, Digitaria sanguinalis (level) (Digitaria sanguinalis; Dose 15 g/ha): 5 (Level 5: growth control rate is above 85%) | Weeding effect in post-emergence stage, Eleusine indica (level) (Eleusine indica; Dose 15 g/ha): 5 (Level 5: growth control rate is above 85%) | Weeding effect in post-emergence stage, Setaria viridis (level) (Setaria viridis; Dose 15 g/ha): 5 (Level 5: growth control rate is above 85%) | Weeding effect in post-emergence stage, Echinochloa crusgalli (level) (Echinochloa crusgalli; Dose 15 g/ha): 5 (Level 5: growth control rate is above 85%)

COC(=O)CCNC(=O)[C@@H](C)O/N=C/c1cc(-n2c(=O)cc(C(F)(F)F)n(C)c2=O)c(F)cc1Cl [416(R)]
Weeding effect in post-emergence stage, Abutilon theophrasti (level) (Abutilon theophrasti; Dose 15 g/ha): 5 (Level 5: growth control rate is above 85%) | Weeding effect in post-emergence stage, Alopecurus japonicus (level) (Alopecurus japonicus; Dose 15 g/ha): 5 (Level 5: growth control rate is above 85%) | Weeding effect in post-emergence stage, Digitaria sanguinalis (level) (Digitaria sanguinalis; Dose 15 g/ha): 5 (Level 5: growth control rate is above 85%) | Weeding effect in post-emergence stage, Eleusine indica (level) (Eleusine indica; Dose 15 g/ha): 5 (Level 5: growth control rate is above 85%) | Weeding effect in post-emergence stage, Setaria viridis (level) (Setaria viridis; Dose 15 g/ha): 5 (Level 5: growth control rate is above 85%) | Weeding effect in post-emergence stage, Echinochloa crusgalli (level) (Echinochloa crusgalli; Dose 15 g/ha): 5 (Level 5: growth control rate is above 85%)

CC(O/N=C/c1cc(-n2c(=O)cc(C(F)(F)F)n(C)c2=O)c(F)cc1Cl)C(=O)OCc1ccc(F)cc1 (stereo not drawn) [Compound 286]
Weeding effect in post-emergence stage, Abutilon theophrasti (Abutilon theophrasti; Dose 30 g/ha): 5 (Level 5: growth control rate is above 85%) | Weeding effect in post-emergence stage, Alopecurus japonicus (Alopecurus japonicus; Dose 30 g/ha): 5 (Level 5: growth control rate is above 85%) | Weeding effect in post-emergence stage, Digitaria sanguinalis (Digitaria sanguinalis; Dose 30 g/ha): 5 (Level 5: growth control rate is above 85%) | Weeding effect in post-emergence stage, Eleusine indica (Eleusine indica; Dose 30 g/ha): 5 (Level 5: growth control rate is above 85%) | Weeding effect in post-emergence stage, Setaria viridis (Setaria viridis; Dose 30 g/ha): 5 (Level 5: growth control rate is above 85%) | Weeding effect in post-emergence stage, Echinochloa crusgalli (Echinochloa crusgalli; Dose 30 g/ha): 5 (Level 5: growth control rate is above 85%)

C[C@@H](O/N=C/c1cc(-n2c(=O)cc(C(F)(F)F)n(C)c2=O)c(F)cc1Cl)C(=O)OC1CCCC1 [214(R)]
Weeding effect in post-emergence stage, Abutilon theophrasti (Abutilon theophrasti; Dose 15 g/ha): 5 (Level 5: growth control rate is above 85%) | Weeding effect in post-emergence stage, Alopecurus japonicus (Alopecurus japonicus; Dose 15 g/ha): 5 (Level 5: growth control rate is above 85%) | Weeding effect in post-emergence stage, Digitaria sanguinalis (Digitaria sanguinalis; Dose 15 g/ha): 5 (Level 5: growth control rate is above 85%) | Weeding effect in post-emergence stage, Eleusine indica (Eleusine indica; Dose 15 g/ha): 5 (Level 5: growth control rate is above 85%) | Weeding effect in post-emergence stage, Setaria viridis (Setaria viridis; Dose 15 g/ha): 5 (Level 5: growth control rate is above 85%) | Weeding effect in post-emergence stage, Echinochloa crusgalli (Echinochloa crusgalli; Dose 15 g/ha): 5 (Level 5: growth control rate is above 85%)
